3 molecules from US20100010100A1, “DERMATOLOGICAL COMPOSITIONS WITH ANTI-AGING AND SKIN EVEN-TONING PROPERTIES” (priority 2008, published 2010) can be followed below.

For this assay, the system named is MelanoDerm™ in vitro skin model (MEL-300B melanoderms). Kind of assay: In vitro skin model test (MelanoDerm skin-lightening, digital image quantification). It counts as cell-based. The note with it: for pixel density / lightening: 14 days; for pixel density: pixel content of untreated set at 1.00; for lightening: vs untreated. As for the experimental part:
The skin-lightening effect was validated on the in vitro skin model, the MelanoDerm™ carried out by MatTek using MEL-300B melanoderms. This model is very similar in structure and function to the natural skin and has the cell types relevant in the epidermis including the melanocytes, which are responsible for the synthesis of the main pigment melanin. Further information can be found, for example, in http://www.mattek.com/pages/in_vitro_basics. The study was carried out over a period of 14 days at two concentrations, 10 μM and 60 μM. 1% Kojic acid was the positive standard and untreated as negative control.
Digital image quantification was achieved by subtracting a standard background value from the pixel content of regions of identical size. The pixel content of untreated cells was set at 1.00. Treatment with topical 1% kojic acid as a positive control gave pixel density of 0.96 or 4% lightening. Treatment with Duroquinone gave pixel density of 0.82 or 18% lightening at a concentration of 10 μM and 0.60 or 40% lightening at a concentration of 60 μM. Treatment with 2,5,6-trimethyl-3-(4-(trifluoromethyl)phenyl)cyclohexa-2,5-diene-1,4-dione gave pixel density of […] or 34% lightening at a concentration of 60 μM.

Regarding `CC1=C(C)C(=O)C(c2ccc(C(F)(F)F)cc2)=C(C)C1=O` [2,5,6-trimethyl-3-(4-(trifluoromethyl)phenyl)cyclohexa-2,5-diene-1,4-dione], the “effectiveness relative to kojic acid positive standard” value (60 μM vs 1% kojic acid) is on record as “ten times as effective”. Where the note is “60 μM”, this molecule gave a pixel density of 0.69 and a lightening of 34%.
For the molecule `CC1=C(C)C(=O)C(C)=C(C)C1=O` [Duroquinone, 2,3,5,6-tetramethylcyclohexa-2,5-diene-1,4-dione], the “effectiveness relative to kojic acid positive standard” value by setting is: (10 μM vs 1% kojic acid) “four and a half times as effective”; (60 μM vs 1% kojic acid) “ten times as effective”. In addition, the pixel density by setting is: (10 μM) 0.82; (60 μM) 0.60. Besides, the lightening was found to be 18% (10 μM) and 40% (60 μM).
Regarding `O=c1cc(CO)occ1O` [kojic acid, reference compound], under “topical 1% (positive control)”, the pixel density worked out at 0.96 and the lightening is reported as 4%.
